Laboratory results reported in patent publication US9650339B2, “Inhibitors of histone demethylases” (Gilead Sciences, Inc., priority 2013, dated 2017).

Columns and labels:
KDM3B (JMJD1B) = molecular target: T1, KDM3B (JMJD1B) (Homo sapiens, UniProt Q7LBC6); assay: Histone lysine demethylase AlphaLISA assay, KDM3B; format: biochemical; settings: read-out: KDM3B HDME Inhibition IC50
T1 construct: 842-1761; host or cells: Bac (baculovirus system)
T1 sequence (Q7LBC6 842-1761): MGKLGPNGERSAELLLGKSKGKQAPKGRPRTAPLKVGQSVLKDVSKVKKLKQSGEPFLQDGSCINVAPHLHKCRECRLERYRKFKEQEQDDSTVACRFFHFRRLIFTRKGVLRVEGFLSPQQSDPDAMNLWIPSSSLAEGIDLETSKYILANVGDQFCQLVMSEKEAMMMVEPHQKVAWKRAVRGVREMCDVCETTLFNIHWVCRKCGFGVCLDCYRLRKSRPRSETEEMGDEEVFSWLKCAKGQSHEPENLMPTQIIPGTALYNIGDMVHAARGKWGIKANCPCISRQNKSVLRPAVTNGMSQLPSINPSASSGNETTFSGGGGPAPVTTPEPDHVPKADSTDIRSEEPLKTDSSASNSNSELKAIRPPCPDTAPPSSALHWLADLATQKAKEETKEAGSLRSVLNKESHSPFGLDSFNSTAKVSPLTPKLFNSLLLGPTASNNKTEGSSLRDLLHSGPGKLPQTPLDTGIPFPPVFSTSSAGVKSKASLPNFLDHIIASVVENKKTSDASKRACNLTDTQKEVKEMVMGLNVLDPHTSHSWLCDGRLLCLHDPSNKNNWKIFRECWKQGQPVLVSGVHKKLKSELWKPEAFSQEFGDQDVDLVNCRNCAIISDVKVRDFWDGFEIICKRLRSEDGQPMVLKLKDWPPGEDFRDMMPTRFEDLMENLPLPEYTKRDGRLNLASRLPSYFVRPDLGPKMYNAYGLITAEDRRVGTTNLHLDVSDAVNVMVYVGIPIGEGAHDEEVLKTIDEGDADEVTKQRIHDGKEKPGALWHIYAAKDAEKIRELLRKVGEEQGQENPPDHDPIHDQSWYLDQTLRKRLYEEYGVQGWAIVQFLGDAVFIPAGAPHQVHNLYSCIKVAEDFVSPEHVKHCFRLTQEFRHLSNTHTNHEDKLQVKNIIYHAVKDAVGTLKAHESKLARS
Method in brief: (§1)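 Biotinylated methylated H3 peptides (K9, K4, K27 or K36 marks) served as substrate, with 25 μM L-Asc and 10 μM α-KG. Enzymes were preincubated 10 min, then exposed to compounds (3% DMSO solutions) 10 min; product detected by AlphaLISA acceptor and streptavidin donor beads at room temperature in dark.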

KDM3A (JMJD1A) = molecular target: T2, KDM3A (JMJD1A) (Homo sapiens, UniProt Q9Y4C1); assay: Histone lysine demethylase AlphaLISA assay, KDM3A; format: biochemical; settings: read-out: KDM3 A HDME Inhibition IC50
T2 construct: 2-end; purchased BPS Bioscience, US; host or cells: Bac (baculovirus system)
T2 sequence (Q9Y4C1 2-1321 limits assumed): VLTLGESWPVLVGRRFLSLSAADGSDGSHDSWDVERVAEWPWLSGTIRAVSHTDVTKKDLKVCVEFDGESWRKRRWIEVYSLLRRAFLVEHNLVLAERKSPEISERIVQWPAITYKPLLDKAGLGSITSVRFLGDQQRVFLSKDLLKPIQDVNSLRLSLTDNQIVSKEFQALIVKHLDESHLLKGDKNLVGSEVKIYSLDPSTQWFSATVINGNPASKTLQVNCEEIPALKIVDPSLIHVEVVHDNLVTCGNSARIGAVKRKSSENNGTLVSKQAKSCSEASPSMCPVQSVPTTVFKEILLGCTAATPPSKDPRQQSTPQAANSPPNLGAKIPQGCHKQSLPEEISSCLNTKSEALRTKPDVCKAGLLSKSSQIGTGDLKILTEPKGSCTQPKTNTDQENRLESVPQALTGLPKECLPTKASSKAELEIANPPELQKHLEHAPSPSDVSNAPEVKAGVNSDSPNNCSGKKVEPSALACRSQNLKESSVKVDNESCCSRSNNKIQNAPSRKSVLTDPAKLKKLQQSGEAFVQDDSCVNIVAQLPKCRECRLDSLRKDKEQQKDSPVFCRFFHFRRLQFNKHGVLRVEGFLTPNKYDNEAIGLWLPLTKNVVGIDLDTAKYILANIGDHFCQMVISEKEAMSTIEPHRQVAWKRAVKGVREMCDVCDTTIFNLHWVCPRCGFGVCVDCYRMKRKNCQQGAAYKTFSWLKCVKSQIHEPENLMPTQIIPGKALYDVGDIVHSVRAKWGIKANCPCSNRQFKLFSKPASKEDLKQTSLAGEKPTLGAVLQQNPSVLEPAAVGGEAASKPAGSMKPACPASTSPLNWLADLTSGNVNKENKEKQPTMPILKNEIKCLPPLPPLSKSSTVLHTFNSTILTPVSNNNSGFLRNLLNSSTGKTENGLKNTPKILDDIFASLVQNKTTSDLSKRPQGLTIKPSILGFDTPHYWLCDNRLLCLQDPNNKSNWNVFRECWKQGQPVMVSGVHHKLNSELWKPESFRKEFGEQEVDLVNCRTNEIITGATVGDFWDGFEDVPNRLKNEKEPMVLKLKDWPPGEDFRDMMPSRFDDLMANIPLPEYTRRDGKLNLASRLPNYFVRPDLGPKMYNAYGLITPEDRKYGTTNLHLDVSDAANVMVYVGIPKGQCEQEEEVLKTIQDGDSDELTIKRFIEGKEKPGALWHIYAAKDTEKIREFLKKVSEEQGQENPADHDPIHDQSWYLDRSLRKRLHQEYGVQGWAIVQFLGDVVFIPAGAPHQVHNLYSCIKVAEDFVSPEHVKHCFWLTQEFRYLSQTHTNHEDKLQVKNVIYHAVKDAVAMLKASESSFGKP
Method in brief: as §1

Structure (SMILES): CN(C)CCCCCNCc1cc(C=O)ccn1 [Compound 114, 2-({[5-(dimethylamino)-pentyl]amino}methyl)-pyridine-4-carbaldehyde]
- IC50 (KDM3B (JMJD1B)): > 2500 nM
- IC50 (KDM3A (JMJD1A)): > 2500 nM

Structure (SMILES): CCN(CC)CCCCN(Cc1cc(C=O)ccn1)C(=O)C(F)(F)F [Compound 115, N-[4-(diethylamino)butyl]-2,2,2-trifluoro-N-[(4-formylpyridin-2-yl)methyl]acetamide]
- IC50 (KDM3B (JMJD1B)): > 2500 nM
- IC50 (KDM3A (JMJD1A)): > 2500 nM
